Experimental findings from publication PMC11378297, “Discovery and Profiling of New Multimodal Phenylglycinamide Derivatives as Potent Antiseizure and Antinociceptive Drug Candidates” (ACS Chemical Neuroscience, 2024) are described below.

Read-outs that look alike come from different tables or passages of the source.

One test concerns the target T1, TRPM8 (h) (Homo sapiens, UniProt Q7Z2W7).
T1 construct: Eurofins
Briefly: TRPM8 (h) (antagonist effect). Format: cell-based. Particulars: HEK293, human recombinant HEK-293 cell, read-out: % inhibition of control agonist response. On the procedure: (§1) Using previously described testing methodologies, binding/functional tests were conducted on a commercial basis at Eurofins Laboratories (Poitiers, France) and Eurofins Panlabs Discovery Services Taiwan, Ltd. (New Taipei City, Taiwan); see Table S9 for more information.
(§2) Table S9. Radioligand binding and functional assays. […]
TRPM8 (h) (antagonist effect) […]
(§3) Assays were performed commercially in Eurofins Laboratories (Poitiers, France) or Eurofins Panlabs Discovery Services
(§4) Taiwan, Ltd. (New Taipei City, Taiwan).

A further test deals with T2, TRPA1 (h) (Homo sapiens, UniProt O75762).
T2 construct: Eurofins
As to the kind of experiment: TRPA1 (h) cell based antagonist calcium flux assay. As to conditions: HEK293, human recombinant HEK-293 cell, read-out: % inhibition of control agonist response. On the procedure:
as §1, §2
TRPA1 (h) transient potential ion channel cell based antagonist calcium flux assay […]
as §3, §4

In test [1] the test system is OXPT-induced tactile allodynia, mice. As to the kind of experiment: oxaliplatin (OXPT)-induced peripheral neuropathy, von Frey test.
Method: In experimental conditions, these mechanisms trigger mechanical allodynia, which can be observed as a decrease in the pain threshold, as assessed by the von Frey test.[37]
We tested (R)-31 at the doses of 50, 75, and 100 mg/kg (Figure 7C).
The experimental groups consisted of 10 adult male Albino Swiss mice (CD-1, 18–25 g). Each animal was tested only once. Immediately after the assay, the animals were sacrificed by cervical dislocation. Behavioral measurements were observed by trained observers. […] The tested materials were administered intraperitoneally half an hour before the test, after being suspended in a 1% aqueous solution of Tween-80. 30 min before the test, the animals in the control group (negative control) received an appropriate dose of the vehicle (Tween-80, 1% aqueous solution, i.p.).
For test [2], the target named is T3, Voltage-Gated Sodium channel hNav1.1 (Homo sapiens, UniProt P35498).
T3 construct: Eurofins Discovery (St. Charles, MO, USA)
As to the kind of experiment: human sodium ion channel cell based automated patch clamp assay, hNav1.1. As for the experimental part: (§5) Therefore, as a part of the more detailed functional characterization using automated patch clamp method, we tested the influence of (R)-32 on sodium currents mediated by several Navx channels comprising 5 different human subunits, namely, Nav1.1, Nav1.2, Nav1.3, Nav1.6, and Nav1.7, which are involved in both seizure and/or pain modulation.[74],[80],[81] As summarized in Tables S4–S8, (R)-32 starting from 10 μM effectively and in concentration-dependent manner decreased sodium currents mediated by all aforementioned sodium channel subunits. Furthermore, (R)-32 appeared to bind exclusively to sodium channels that are in an inactivated state (see pulse 2 in Tables S4–S8), but not to the channels that are in an open state (pulse 1) (for additional details, see Supporting Information).
(§6) Human sodium ion channels cell based automated patch clamp assay
(§7) Human sodium ion channels cell based automated patch clamp assays: sodium channels exist in, a) a resting or closed state at -120 mV, b) a transient open state that inactivates to c) inactivated state at -10 mV. Sodium current inhibition within 1-2 ms of channel opening at 0 mV is open channel inhibition (pulse 1). In order to completely inactivate the sodium channels and facilitate inactivated state-dependent binding of the drug, the channels were kept at […] ( -10 mV) longer (pulsed for 500 ms) and then stepped back to -120 mV for 10 ms to recover from inactivation into resting or closed state (but the channels that had drug bound to them will not recover from inactivation and will not open) before stepping to -10 mV for 50 ms (pulse 2) to mea sure sodium channels that are available to open. The higher inhibition seen at pulse 2 is due to inactivated state -dependent inhibition. Pulse 1 and 2 are used to investigate drug binding to the open state and inactivated state of the Na channels, respectively. Each concentration of compound is applied for 5 minutes. The results obtained for (R)-32 are summerized in Tables S4–S8.
Table S4. Effect of the (R)-32 on subunit Nav1.1.
Voltage-Gated Sodium channel hNav1.1
(§8) Compound Concentration Measurement % Inhibition
(§9) Data interpretation: Results showing inhibition greater than 50% are considered to represent significant effects of test compound and have been bolded for (R)-32 for better visualization. The studies were carried out in Eurofins Discovery (St. Charles, MO, USA).

In test [3] the target is T4, Voltage-Gated Sodium channel hNav1.2 (Homo sapiens, UniProt Q99250).
T4 construct: Eurofins Discovery (St. Charles, MO, USA)
Briefly: human sodium ion channel cell based automated patch clamp assay, hNav1.2. On the procedure:
as §5, §6
as §7, with “S4–S8. […]” for “S4–S8.”
as §8, §9

[4] abbreviates: hNav1.1, Pulse 1 (open state), read-out: % Inhibition Mean.
The mark [5] stands for this setting: hNav1.1, Pulse 1 (open state), read-out: % Inhibition n1.
Where [6] appears, read: hNav1.1, Pulse 1 (open state), read-out: % Inhibition n2.
Setting [7] is: hNav1.1, Pulse 2 (inactivated state), read-out: % Inhibition Mean.
[8] abbreviates: hNav1.1, Pulse 2 (inactivated state), read-out: % Inhibition n1.
[9] abbreviates: hNav1.1, Pulse 2 (inactivated state), read-out: % Inhibition n2.
The mark [10] stands for this setting: hNav1.2, Pulse 1 (open state), read-out: % Inhibition Mean.
[11] abbreviates: hNav1.2, Pulse 1 (open state), read-out: % Inhibition n1.
Where [12] appears, read: hNav1.2, Pulse 1 (open state), read-out: % Inhibition n2.
[13] abbreviates: hNav1.2, Pulse 2 (inactivated state), read-out: % Inhibition Mean.
Where [14] appears, read: hNav1.2, Pulse 2 (inactivated state), read-out: % Inhibition n1.
Where [15] appears, read: hNav1.2, Pulse 2 (inactivated state), read-out: % Inhibition n2.

T4 sequence (Q99250 whole entry): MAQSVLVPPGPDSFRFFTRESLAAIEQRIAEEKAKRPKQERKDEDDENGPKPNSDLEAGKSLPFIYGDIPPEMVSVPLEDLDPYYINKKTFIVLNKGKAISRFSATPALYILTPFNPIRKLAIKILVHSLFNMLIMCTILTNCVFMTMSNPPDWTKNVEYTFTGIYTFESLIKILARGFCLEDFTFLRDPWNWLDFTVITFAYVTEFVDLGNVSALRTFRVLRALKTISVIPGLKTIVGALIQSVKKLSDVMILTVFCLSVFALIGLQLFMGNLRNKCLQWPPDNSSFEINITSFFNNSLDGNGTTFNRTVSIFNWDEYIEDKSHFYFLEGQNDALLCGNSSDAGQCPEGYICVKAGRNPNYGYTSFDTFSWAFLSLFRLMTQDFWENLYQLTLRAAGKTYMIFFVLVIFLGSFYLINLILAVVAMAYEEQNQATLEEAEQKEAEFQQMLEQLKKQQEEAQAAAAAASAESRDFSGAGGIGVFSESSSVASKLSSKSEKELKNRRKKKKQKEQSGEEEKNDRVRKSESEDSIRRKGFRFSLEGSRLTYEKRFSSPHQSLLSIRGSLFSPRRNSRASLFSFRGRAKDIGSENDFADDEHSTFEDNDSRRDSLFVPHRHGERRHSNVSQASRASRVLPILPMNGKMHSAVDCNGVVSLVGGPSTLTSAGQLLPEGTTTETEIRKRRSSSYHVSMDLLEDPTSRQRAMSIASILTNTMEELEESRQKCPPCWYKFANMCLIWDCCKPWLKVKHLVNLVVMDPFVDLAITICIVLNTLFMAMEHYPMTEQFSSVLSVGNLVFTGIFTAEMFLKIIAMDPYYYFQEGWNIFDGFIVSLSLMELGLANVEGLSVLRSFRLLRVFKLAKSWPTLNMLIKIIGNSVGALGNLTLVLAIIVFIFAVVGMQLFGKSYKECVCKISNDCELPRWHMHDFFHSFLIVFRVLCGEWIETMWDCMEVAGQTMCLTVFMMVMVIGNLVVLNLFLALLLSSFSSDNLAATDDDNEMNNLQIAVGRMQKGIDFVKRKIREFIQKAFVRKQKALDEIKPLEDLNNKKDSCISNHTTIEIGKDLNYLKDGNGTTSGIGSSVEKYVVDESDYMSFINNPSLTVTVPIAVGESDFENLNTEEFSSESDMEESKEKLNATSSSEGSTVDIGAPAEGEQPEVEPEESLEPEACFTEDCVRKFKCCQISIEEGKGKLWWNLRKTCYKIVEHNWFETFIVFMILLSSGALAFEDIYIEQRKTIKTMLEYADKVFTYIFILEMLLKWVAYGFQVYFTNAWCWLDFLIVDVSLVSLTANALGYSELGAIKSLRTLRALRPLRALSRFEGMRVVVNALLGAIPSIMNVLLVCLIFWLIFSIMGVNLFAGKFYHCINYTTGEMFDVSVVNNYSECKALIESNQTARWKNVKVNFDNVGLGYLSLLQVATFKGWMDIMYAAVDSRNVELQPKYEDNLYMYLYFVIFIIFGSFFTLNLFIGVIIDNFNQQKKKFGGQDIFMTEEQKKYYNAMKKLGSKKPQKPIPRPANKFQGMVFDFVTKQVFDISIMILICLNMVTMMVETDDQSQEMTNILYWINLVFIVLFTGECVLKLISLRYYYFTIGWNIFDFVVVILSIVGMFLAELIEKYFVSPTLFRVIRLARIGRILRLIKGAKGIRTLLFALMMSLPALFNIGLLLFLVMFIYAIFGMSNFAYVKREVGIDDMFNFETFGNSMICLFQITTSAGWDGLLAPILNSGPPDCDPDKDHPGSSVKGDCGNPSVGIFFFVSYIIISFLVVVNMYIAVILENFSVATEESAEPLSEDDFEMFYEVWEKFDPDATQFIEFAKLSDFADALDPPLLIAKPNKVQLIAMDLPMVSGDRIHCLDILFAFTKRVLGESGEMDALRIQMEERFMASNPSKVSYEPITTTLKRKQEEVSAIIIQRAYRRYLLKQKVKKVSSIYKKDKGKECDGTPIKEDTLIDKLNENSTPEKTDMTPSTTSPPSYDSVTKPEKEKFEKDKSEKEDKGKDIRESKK
T1 sequence (Q7Z2W7 whole entry): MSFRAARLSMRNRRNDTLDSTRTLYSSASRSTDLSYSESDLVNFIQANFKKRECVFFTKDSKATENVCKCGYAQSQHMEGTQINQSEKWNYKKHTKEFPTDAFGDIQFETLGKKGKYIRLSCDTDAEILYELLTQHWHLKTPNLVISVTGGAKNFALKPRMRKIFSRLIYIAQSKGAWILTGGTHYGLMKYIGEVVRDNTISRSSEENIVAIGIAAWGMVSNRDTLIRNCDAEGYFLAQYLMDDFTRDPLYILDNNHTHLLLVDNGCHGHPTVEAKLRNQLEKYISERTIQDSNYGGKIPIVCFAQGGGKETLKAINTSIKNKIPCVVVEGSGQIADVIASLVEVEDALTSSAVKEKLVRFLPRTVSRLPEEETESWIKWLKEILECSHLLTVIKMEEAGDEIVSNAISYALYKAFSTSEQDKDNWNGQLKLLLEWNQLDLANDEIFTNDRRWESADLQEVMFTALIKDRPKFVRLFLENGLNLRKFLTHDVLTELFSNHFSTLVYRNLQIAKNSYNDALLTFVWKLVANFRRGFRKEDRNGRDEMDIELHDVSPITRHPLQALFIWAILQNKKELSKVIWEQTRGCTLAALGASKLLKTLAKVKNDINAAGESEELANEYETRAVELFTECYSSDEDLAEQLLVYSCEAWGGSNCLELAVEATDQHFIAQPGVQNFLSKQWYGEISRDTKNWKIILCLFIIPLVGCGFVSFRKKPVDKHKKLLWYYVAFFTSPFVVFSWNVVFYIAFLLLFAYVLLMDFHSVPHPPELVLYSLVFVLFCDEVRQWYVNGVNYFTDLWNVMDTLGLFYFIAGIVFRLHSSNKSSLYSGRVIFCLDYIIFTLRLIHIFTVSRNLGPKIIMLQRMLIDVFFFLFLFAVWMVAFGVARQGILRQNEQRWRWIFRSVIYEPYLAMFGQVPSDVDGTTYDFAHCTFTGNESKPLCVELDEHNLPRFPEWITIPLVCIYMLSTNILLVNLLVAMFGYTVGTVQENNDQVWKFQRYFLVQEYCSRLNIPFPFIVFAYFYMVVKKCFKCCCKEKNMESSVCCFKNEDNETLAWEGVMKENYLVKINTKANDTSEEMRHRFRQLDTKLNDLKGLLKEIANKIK
T2 sequence (O75762 whole entry): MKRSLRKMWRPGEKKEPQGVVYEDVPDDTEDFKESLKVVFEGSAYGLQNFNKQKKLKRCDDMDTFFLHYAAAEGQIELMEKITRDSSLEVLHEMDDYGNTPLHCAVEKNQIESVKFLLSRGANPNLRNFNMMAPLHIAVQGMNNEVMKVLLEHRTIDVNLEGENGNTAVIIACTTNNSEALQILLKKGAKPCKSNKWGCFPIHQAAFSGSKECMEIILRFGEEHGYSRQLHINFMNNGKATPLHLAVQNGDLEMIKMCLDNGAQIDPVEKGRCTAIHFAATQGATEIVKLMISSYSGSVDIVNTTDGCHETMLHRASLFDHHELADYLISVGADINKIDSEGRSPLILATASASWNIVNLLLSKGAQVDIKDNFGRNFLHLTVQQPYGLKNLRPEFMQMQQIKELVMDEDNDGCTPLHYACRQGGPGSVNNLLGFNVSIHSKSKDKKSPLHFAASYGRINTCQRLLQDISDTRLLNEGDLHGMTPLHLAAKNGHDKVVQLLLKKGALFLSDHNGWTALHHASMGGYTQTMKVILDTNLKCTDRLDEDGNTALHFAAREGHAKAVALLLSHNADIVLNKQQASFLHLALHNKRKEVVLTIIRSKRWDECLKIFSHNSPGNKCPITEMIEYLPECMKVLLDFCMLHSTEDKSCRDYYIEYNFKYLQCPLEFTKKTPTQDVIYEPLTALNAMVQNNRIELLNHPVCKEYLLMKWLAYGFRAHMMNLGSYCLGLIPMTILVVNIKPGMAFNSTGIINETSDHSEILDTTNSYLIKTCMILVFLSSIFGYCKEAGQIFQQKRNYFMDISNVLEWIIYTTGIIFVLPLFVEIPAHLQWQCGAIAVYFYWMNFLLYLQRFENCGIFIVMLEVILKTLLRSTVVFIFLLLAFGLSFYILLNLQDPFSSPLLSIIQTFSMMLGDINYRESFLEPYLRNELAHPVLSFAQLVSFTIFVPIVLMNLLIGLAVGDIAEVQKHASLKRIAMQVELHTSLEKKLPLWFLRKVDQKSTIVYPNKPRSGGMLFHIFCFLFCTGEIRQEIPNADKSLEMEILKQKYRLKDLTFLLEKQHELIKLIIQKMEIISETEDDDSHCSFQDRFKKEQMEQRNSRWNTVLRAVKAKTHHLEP

With `CC(=O)N[C@@H](C(=O)N1CCN(c2cccc(C(F)(F)F)c2)CC1)c1ccccc1` [(R)-31, (R)-N-(2-Oxo-1-phenyl-2-(4-(3-(trifluoromethyl)phenyl)piperazin-1-yl)ethyl)acetamide], the inhibition at 10 µM on TRPM8 (h) was determined as 4.6%; on TRPA1 (h), 13.3%. In addition, the “pain threshold, early phase (3 h after OXPT), % of the initial value/baseline” value was found to be 114.5% in test [1] (50 mg/kg i.p.) and 93% in test [1] (75 mg/kg i.p.). Also, the “pain threshold, late phase (7 days after OXPT), % of the baseline” value in test [1] (75 mg/kg i.p.) stood at 87%; in test [1] (100 mg/kg i.p.), 77%. For the same molecule, in test [1] (100 mg/kg i.p.), the “pain threshold, early phase (3 h after OXPT), % of the initial value” came out at 78%.
With `CCCCNc1ccc(C(=O)OCCN(C)C)cc1` [Tetracaine, reference compound], the inhibition at 3 µM in test [2] (setting [4]) was 3.28%; in test [2] (setting [5]) it was 4.33%; in test [2] (setting [6]), 2.23%; in test [2] (setting [7]) it was 54.9%; in test [2] (setting [8]), 58.3%; in test [2] (setting [9]), 51.5%. Besides, the inhibition at 3 µM in test [3] (setting [10]) was -2.64%; in test [3] (setting [11]), 5.99%; in test [3] (setting [12]) it was -11.3%; in test [3] (setting [13]), 54.9%; in test [3] (setting [14]), 55.2%; in test [3] (setting [15]), 54.7%. In addition, the inhibition at 30 µM in test [2] (setting [4]) was found to be 16.2%; in test [2] (setting [5]), 20.5%; in test [2] (setting [6]), 11.9%; in test [2] (setting [7]) it was 95.7%; in test [2] (setting [8]), 96.6%; in test [2] (setting [9]) it was 94.8%. The inhibition at 30 µM in test [3] (setting [10]) is 14%; in test [3] (setting [11]) it was 19%; in test [3] (setting [12]), 8.92%; in test [3] (setting [13]), 99.6%; in test [3] (setting [14]), 98.8%; in test [3] (setting [15]), 100%. Besides, the inhibition at 300 µM in test [2] (setting [4]) worked out at 89.7%; in test [2] (setting [5]), 91%; in test [2] (setting [6]) it was 88.4%; in test [2] (setting [7]), 101%; in test [2] (setting [8]) it was 102%; in test [2] (setting [9]), 100%. For the same molecule, the inhibition at 300 µM in test [3] (setting [10]) was determined as 70%; in test [3] (setting [11]), 64.9%; in test [3] (setting [12]), 75.1%; in test [3] (setting [13]) it was 101%; in test [3] (setting [14]) it was 99.9%; in test [3] (setting [15]), 101%.
